In ChEMBL document CHEMBL5241122, “A concise review on marine bromopyrrole alkaloids as anticancer agents” (Bioorg Med Chem Lett, 2023):

Experiments:
[1] = Displacement of [125I]-somatostatin from somatostatin (unknown origin) incubated for 60 mins by gamma scintillation counter analysis; design: species or system Homo sapiens
VIP peptides = VIP peptides (Homo sapiens, UniProt P01282); test: Displacement of [125I]-VIP from Vasoactive intestinal peptide (unknown origin) incubated for 120 mins by gamma scintillation counter analysis
Chain of VIP peptides (P01282 125-152 limits assumed): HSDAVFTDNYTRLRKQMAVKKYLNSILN

[2] = target: Cyclin-dependent kinase 5/CDK5 activator 1 (Homo sapiens, UniProt Q00535); test: Inhibition of CDK5/p25 (unknown origin); type: protein-complex assay
Chain of Cyclin-dependent kinase 5/CDK5 activator 1 (Q00535 whole entry): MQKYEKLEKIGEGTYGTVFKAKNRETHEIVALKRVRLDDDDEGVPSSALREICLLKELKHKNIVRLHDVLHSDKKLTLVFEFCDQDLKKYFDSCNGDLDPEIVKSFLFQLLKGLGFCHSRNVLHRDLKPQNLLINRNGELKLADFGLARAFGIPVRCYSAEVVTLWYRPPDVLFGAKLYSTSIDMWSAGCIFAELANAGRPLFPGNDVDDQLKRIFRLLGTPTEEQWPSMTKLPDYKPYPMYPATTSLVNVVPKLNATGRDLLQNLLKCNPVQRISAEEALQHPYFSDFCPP
Chain of Cyclin-dependent kinase 5/CDK5 activator 1 (Q15078 whole entry, further chain): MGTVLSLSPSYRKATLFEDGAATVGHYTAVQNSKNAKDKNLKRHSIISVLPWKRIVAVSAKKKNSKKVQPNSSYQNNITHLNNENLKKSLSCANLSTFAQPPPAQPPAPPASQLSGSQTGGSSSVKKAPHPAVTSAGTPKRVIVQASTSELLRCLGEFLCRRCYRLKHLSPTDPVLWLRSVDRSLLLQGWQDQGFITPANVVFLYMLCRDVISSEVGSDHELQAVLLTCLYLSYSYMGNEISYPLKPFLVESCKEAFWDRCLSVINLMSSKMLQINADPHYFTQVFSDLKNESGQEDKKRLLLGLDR

[3] = Inhibition of CK1gamma (unknown origin); design: species or system Homo sapiens
SW-620 = test: Cytotoxicity against human SW620 cells assessed as cell growth inhibition; type: functional, cell-based
KB 3-1 = test: Cytotoxicity against human KB-3-1 cells assessed as cell growth inhibition; type: functional, cell-based
[4] = target: Receptor tyrosine-protein kinase erbB-2 (Homo sapiens, UniProt P04626); test: Inhibition of c-ErbB-2 (unknown origin)
Chain of Receptor tyrosine-protein kinase erbB-2 (P04626 whole entry): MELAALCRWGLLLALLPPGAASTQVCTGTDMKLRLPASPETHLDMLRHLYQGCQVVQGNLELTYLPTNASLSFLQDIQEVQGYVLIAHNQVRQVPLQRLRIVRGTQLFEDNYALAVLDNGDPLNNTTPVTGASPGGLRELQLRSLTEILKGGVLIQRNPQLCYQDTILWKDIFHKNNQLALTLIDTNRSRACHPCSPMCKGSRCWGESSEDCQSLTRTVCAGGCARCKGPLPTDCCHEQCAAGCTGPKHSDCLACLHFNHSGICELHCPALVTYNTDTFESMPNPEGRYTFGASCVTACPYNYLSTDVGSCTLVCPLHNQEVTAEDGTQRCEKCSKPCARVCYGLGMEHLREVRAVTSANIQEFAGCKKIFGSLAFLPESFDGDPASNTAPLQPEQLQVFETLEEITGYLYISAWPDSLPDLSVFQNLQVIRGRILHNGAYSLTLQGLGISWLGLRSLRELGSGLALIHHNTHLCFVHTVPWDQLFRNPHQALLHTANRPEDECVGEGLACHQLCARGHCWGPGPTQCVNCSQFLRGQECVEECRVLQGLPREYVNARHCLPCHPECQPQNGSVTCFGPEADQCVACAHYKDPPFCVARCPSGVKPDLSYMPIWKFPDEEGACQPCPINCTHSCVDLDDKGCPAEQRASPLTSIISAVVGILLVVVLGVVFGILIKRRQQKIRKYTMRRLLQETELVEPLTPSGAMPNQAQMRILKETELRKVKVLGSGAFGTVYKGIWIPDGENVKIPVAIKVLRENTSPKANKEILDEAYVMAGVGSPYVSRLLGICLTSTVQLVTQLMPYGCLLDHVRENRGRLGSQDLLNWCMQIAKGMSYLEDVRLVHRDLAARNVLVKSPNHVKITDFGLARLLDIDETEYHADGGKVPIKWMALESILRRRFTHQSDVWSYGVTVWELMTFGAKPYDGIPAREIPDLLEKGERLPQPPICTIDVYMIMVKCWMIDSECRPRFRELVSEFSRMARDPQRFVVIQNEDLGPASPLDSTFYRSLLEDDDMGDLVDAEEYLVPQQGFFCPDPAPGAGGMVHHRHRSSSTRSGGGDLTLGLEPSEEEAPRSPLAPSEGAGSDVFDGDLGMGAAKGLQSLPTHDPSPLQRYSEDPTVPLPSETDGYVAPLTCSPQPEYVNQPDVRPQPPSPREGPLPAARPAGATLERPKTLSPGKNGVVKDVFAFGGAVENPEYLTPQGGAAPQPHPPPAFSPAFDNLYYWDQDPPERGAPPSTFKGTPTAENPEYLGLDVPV

[5] = target: Cyclin-dependent kinase 4 (Homo sapiens, UniProt P11802); test: Inhibition of CDK4 (unknown origin)
Chain of Cyclin-dependent kinase 4 (P11802 whole entry): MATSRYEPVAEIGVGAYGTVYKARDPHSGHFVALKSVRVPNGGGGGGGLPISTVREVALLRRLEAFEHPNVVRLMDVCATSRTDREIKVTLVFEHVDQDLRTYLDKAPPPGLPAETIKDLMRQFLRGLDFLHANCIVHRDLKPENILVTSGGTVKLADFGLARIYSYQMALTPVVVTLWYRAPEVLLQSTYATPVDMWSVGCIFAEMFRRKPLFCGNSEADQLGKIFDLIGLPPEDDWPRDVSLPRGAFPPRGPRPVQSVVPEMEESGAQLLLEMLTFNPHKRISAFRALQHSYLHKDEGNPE

MONO-MAC-6 = test: Cytotoxicity against human MONO-MAC-6 cells incubated for 48 hrs by [3H]-thymidine incorporation based liquid scintillation counter analysis; type: functional, cell-based
L1210 = test: Cytotoxicity against mouse L1210 cells; type: functional, cell-based
P388 = test: Cytotoxicity against mouse P388 cells; type: functional, cell-based
Jurkat = test: Antiinflammatory activity in PMA induced human Jurkat cells assessed as inhibition of IL-2 production by EIA assay; type: functional, cell-based
MCF7 = test: Cytotoxicity against human MCF7 cells by MTT assay; type: functional, cell-based
Caco-2 = test: Cytotoxicity against human Caco-2 cells by MTT assay; type: functional, cell-based
WRL68 = test: Cytotoxicity against human WRL68 cells by MTT assay; type: functional, cell-based
U-937 = test: Cytotoxicity against human U-937 cells incubated for 48 hrs by MTT assay; type: functional, cell-based; settings: U-937, 48 h
PC-9 = test: Cytotoxicity against human PC-9 cells incubated for 48 hrs by MTT assay; type: functional, cell-based; settings: PC-9, 48 h
HT-29 = test: Cytotoxicity against human HT-29 cells assessed as cell growth inhibition by cell based assay; type: functional
A549 = test: Cytotoxicity against human A549 cells assessed as cell growth inhibition by cell based assay; type: functional
PSN1 = test: Cytotoxicity against human PSN1 cells assessed as cell growth inhibition by cell based assay; type: functional
MDA-MB-231 = test: Cytotoxicity against human MDA-MB-231 cells assessed as cell growth inhibition by cell based assay; type: functional
[6] = target: E3 ubiquitin-protein ligase CBL-B (Homo sapiens, UniProt Q13191); test: Inhibition of Cbl-b (unknown origin) assessed as inhibition of Cbl-b dependent ubiquitination in presence of ATP measured after 13 hrs by fluorescence microplate reader assay
Chain of E3 ubiquitin-protein ligase CBL-B (Q13191 whole entry): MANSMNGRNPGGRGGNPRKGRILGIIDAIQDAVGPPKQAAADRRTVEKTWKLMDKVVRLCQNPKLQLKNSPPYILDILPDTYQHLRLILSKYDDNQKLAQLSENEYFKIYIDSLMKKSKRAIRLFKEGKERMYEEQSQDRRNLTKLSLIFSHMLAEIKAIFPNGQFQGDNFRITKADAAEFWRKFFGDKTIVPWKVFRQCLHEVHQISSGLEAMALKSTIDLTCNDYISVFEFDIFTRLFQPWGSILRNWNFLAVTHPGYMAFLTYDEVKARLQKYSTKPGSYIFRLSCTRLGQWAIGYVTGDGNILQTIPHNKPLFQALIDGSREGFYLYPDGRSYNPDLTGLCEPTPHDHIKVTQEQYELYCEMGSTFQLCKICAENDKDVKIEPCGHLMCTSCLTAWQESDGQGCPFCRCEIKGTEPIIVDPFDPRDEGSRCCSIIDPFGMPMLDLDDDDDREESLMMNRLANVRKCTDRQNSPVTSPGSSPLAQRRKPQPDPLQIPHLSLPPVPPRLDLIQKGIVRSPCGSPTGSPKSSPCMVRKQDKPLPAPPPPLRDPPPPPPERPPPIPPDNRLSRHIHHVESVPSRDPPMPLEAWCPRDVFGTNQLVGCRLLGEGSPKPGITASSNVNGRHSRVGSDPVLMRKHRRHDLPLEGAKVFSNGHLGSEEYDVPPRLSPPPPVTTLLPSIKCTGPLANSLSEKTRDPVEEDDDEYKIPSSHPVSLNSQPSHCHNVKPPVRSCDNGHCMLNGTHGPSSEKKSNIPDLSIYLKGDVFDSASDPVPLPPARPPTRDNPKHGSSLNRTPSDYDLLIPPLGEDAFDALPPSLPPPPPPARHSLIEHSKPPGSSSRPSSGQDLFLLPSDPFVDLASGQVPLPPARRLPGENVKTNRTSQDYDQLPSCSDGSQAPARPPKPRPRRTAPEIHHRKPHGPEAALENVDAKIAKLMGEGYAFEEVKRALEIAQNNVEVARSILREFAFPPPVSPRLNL

SF-295 = test: Inhibition of cell growth in human SF-295 cells by SRB assay; type: functional; settings: read-out: ED50 (the source's name)
KM-20L2 = test: Inhibition of cell growth in human KM-20L2 cells by SRB assay; type: functional; settings: read-out: ED50 (the source's name)
NCI-H460 = test: Inhibition of cell growth in human NCI-H460 cells by SRB assay; type: functional; settings: read-out: ED50 (the source's name)
SK-MEL-5 = test: Inhibition of cell growth in human SK-MEL-5 cells by SRB assay; type: functional; settings: read-out: ED50 (the source's name)
A498 = test: Inhibition of cell growth in human A498 cells by SRB assay; type: functional; settings: read-out: ED50 (the source's name)
OVCAR-3 = test: Inhibition of cell growth in human OVCAR-3 cells by SRB assay; type: functional; settings: read-out: ED50 (the source's name)
THP-1 = test: Antiinflammatory activity in LPS induced human THP-1 cells assessed as inhibition of TNF-alpha production by EIA assay; type: functional, cell-based

NC1=NC2C[C@H](CNC(=O)c3cc(Br)c[nH]3)[C@@H](CNC(=O)c3cc(Br)c[nH]3)[C@H](c3nc(N)c[nH]3)C2N1 (stereo partly drawn)
IC50 [1]: 2.2 µM
IC50 (VIP peptides): 19.2 µM

N=C1NC(=O)C(=C2CCNC(=O)c3[nH]c(Br)cc32)N1
IC50 [2]: 0.16 µM
IC50 [3]: 0.03 µM
IC50 (SW-620): 3.1 µM
IC50 (KB 3-1): 2 µM

N=C1NC(=O)/C(=C2/CCNC(=O)c3[nH]cc(Br)c32)N1
IC50 [4]: 18.5 µM
IC50 [5]: 29.6 µM

NC1=N/C(=C2/CCNC(=O)c3[nH]ccc32)C(=O)N1 [DEBROMOHYMENIALDISINE]
IC50 (MONO-MAC-6): 9.67 µM

CO[C@]12C[C@@H](CNC(=O)c3cc(Br)c[nH]3)O[C@H]1NC(=O)N2
IC50 (L1210): 19.6 µM

N=C1NC(=O)/C(=C2/CCNC(=O)c3[nH]c(Br)c(Br)c32)N1
IC50 [4]: 21 µM
IC50 [5]: 98.5 µM

NC1=N[C@]23[C@H](N1)c1[nH]c(Br)c(Br)c1C(=O)N2C[C@H](O)[C@H]3O
IC50 (P388): 78.4 µM

COCNC(=O)c1cc(Br)c(Br)[nH]1
EC50 (P388; read-out: ED50 (the source's name)): 69.4 µM

NC1=NC(=O)/C(=C2\CCNC(=O)c3[nH]c4ccccc4c32)N1
IC50 (Jurkat): 3.5 µM

Cn1c(C(=O)NNC(=S)Nc2ccccc2F)cc(Br)c1Br
IC50 (MCF7): 0.01 µM
IC50 (Caco-2): 0.01 µM
IC50 (WRL68): 0.01 µM

COc1cccc2c1C(=O)c1c(O)c3c(c(O)c1C2=O)C[C@@](O)(C(=O)CO)C[C@@H]3O[C@H]1C[C@H](N)[C@H](O)[C@H](C)O1 [DOXORUBICIN]
IC50 (U-937): 0.05 µM
IC50 (PC-9): 0.22 µM

CN1C(=O)C[C@H](C(N)=O)NC(=O)C(O)CNC(=O)[C@H](CNC(=O)c2cc(Br)c(Br)[nH]2)NC(=O)[C@H](CN)NC(=O)C1Cc1cnc(Cl)[nH]1 (stereo partly drawn)
GI50 (HT-29): > 12 µM
GI50 (A549): > 12 µM
GI50 (PSN1): > 12 µM
GI50 (MDA-MB-231): > 12 µM

Cn1cc(Br)cc1C(=O)NC[C@@H]1[C@@H](CNC(=O)c2ccc(Br)[nH]2)CC2N=C(N)NC2[C@H]1c1c[nH]c(N)n1 (stereo partly drawn)
IC50 [6]: 18 µM

O=C1NC2n3c(cc(Br)c3Br)C(=O)N3CCCC23N1 (stereo not drawn)
EC50 (SF-295): 3.85 µM
EC50 (KM-20L2): 0.28 µM
EC50 (NCI-H460): 1.59 µM
EC50 (SK-MEL-5): 0.28 µM
EC50 (A498): 0.53 µM
EC50 (OVCAR-3): 1.18 µM

CO[C@@]12C[C@@H](CNC(=O)c3cc(Br)c[nH]3)O[C@@H]1NC(=O)N2
IC50 (L1210): 20.9 µM

Cn1cc(Br)cc1C(=O)NC[C@H]1CC2N=C(N)NC2[C@@H](c2c[nH]c(N)n2)[C@@H]1CNC(=O)c1cc(Br)c[nH]1 (stereo partly drawn)
IC50 [6]: 18 µM

S=C(S)N1CCCC1 [PYRROLIDINE DITHIOCARBAMATE]
IC50 (Jurkat): 5.12 µM
IC50 (THP-1): 6.11 µM

COc1cc(NC(=S)NNC(=O)c2cc(Br)c(Br)n2C)cc(OC)c1OC
IC50 (MCF7): 0.03 µM
IC50 (Caco-2): 0.03 µM
IC50 (WRL68): 0.03 µM

Cn1c(C(=O)NC[C@H]2CC3N=C(N)NC3[C@@H](c3c[nH]c(N)n3)[C@@H]2CNC(=O)c2cc(Br)c[nH]2)cc(Br)c1Br (stereo partly drawn)
IC50 [6]: 18 µM

Cn1cc(Br)cc1C(=O)NC[C@H]1CC2N=C(N)NC2[C@@H](c2c[nH]c(N)n2)[C@@H]1CNC(=O)c1cc(Br)c(Br)[nH]1 (stereo partly drawn)
IC50 [6]: 18 µM

O=C(NNC(=S)Nc1ccc(Cl)cc1)c1cc(Br)c(Br)[nH]1
IC50 (MCF7): 0.03 µM
IC50 (Caco-2): 0.03 µM
IC50 (WRL68): 0.03 µM
